Measured values taken from paper PMC11407758, “Integrated stress response (ISR) activation and apoptosis through HRI kinase by PG3 and other p53 pathway-restoring cancer therapeutics” (Oncotarget, 2024).
pIC50: −log10 of the molar value. Peptide text beside a SMILES is read from it. * marks the point of attachment. Cbz = O=C(OCc1ccccc1)*; CH2F = FC*

Tests used:
Assay type in all cases: cell-based, human
[1] = tested on: PUMA; test: Western blot, PUMA induction; conditions: HCT116 (p53 wild-type), 24 h
Protocol: (§1) Figure 4 Activation of ATF4 and up-regulation of typical p53 target genes. (A–E) Western blot analysis of p53 protein levels and upregulation of ATF4, PUMA, DR5 and p21. Cells were treated for 24 h with indicated compounds, concentrations and cell lines. Abbreviations: S.E.: Short exposure; L.E.: Long exposure.
(§2) After treatment, protein lysates were collected for Western blot analysis. A total of 15 μg of protein was used for SDS-PAGE. After primary and secondary antibody incubations, the signal was detected by a chemiluminescence detection kit, imaged by Syngene (Imgen Technologies). Antibodies for NAG-1 (GDF15) and P53 were from Santa Cruz Biotechnology; for caspase 8, cleaved caspase 8, caspase 9, caspase 3, cleavage PARP, eIF2α, p-eIF2α (Ser51), CHOP, ATF4, DR5, and PUMA were from Cell Signaling Technology. Noxa and p21 were from Calbiochem. Ran was from BD Biosciences.

[2] = tested on: SW480 cells carrying a p53-responsive luciferase reporter; test: p53-responsive reporter assay; conditions: up to 60 μM, 6 hour and 15 hour time points
Protocol: SW480 cells carrying a p53-responsive luciferase reporter were used for assay of functional restoration of mutant p53. Cells were seeded in 96-well plates (5 × 10^4 cells/well) and were treated with compounds indicated for 6 and 15 h, respectively. Then, D-luciferin was added to each well with final concentration 100 μg/mL, and cells were imaged by using an IVIS Imaging System to detect luciferase activity.
p53-mutant SW480 human colon cancer cells, stably expressing a p53-responsive luciferase reporter, were used to assay functional restoration p53 pathway-dependent transcription in mutant p53-expressing tumor cells. Cells were seeded in 96-well plates (5 × 10^4 cells/well) and were treated with small-molecule compounds for 6 and 15 h, respectively. Then, D-luciferin was added to each well at a final concentration of 100 μg/mL, and cells were imaged by using an IVIS Imaging System (Xenogen) to detect luciferase activity.

[3] = tested on: HCT116 (R175H); test: Cell viability assay (CellTiterGlo), HCT116 R175H
Protocol: (§3) Figure 1 PG3 inhibits cell proliferation and growth in a p53-indepent manner. (A–E) Cell viability assay, dose response curves and IC50 value measurements in a panel of cancer cell lines and normal cells. Cells were treated with different concentrations of PG3, PG3-Oc (Oc), obatoclax (Ob), prodigiosin (P) or DMSO for 72 h. Luciferase activity was imaged by the IVIS Imaging System after treatment. Cell viability data were normalized to those of DMSO treatment control in each cell line and data analyses were performed using PRISM4 software. IC50 data are expressed as the mean ±SD (normal; n = 3).
as §3, with “2 p53-dependent inhibition of” for “1 PG3 inhibits”, “is only observed at specific concentrations. (A–J)” for “and growth in a p53-indepent manner. (A–E)”, “ZMC1, CP-313908, APR-246, Ellipticine, Nutalin-3a” for “PG3, PG3-Oc (Oc), obatoclax (Ob), prodigiosin (P)”
(§4) Cells were seeded in 96-well plates (6 × 10^3 cells/well). Cells were treated with different concentrations of compounds or dimethyl sulfoxide (DMSO) as a control for 72 hours. The cell viability was assessed by CellTiterGlo bioluminescent cell viability assay (Promega), following the manufacturer’s protocol. Bioluminescence imaging was measured using the IVIS imager. The percentage of cell viability (mean ± SEM) at each dose was calculated against the respective DMSO control. The IC50 values were determined from the sigmoidal dose-response curves using GraphPad Prism.

[4] = tested on: HCT116 (WT); test: Cell viability assay (CellTiterGlo), HCT116 WT; conditions: 72 h, CellTiterGlo
Protocol: as §3
as §3, with “2 p53-dependent inhibition of” for “1 PG3 inhibits”, “is only observed at specific concentrations. (A–J)” for “and growth in a p53-indepent manner. (A–E)”, “ZMC1, CP-313908, APR-246, Ellipticine, Nutalin-3a” for “PG3, PG3-Oc (Oc), obatoclax (Ob), prodigiosin (P)”
as §4

[5] = tested on: HT29, TOV-112D, isogenic HCT116 cell lines, HFF-1 and MRC5; test: Cell viability assay, panel of cancer cell lines and normal cells (results in words)
Protocol: as §3, with “2 p53-dependent inhibition of” for “1 PG3 inhibits”, “is only observed at specific concentrations. (A–J)” for “and growth in a p53-indepent manner. (A–E)”, “ZMC1, CP-313908, APR-246, Ellipticine, Nutalin-3a” for “PG3, PG3-Oc (Oc), obatoclax (Ob), prodigiosin (P)”
as §4

[6] = tested on: HCT116 (P53−/−); test: Cell viability assay (CellTiterGlo), HCT116 p53-/-
Protocol: as §3
as §3, with “2 p53-dependent inhibition of” for “1 PG3 inhibits”, “is only observed at specific concentrations. (A–J)” for “and growth in a p53-indepent manner. (A–E)”, “ZMC1, CP-313908, APR-246, Ellipticine, Nutalin-3a” for “PG3, PG3-Oc (Oc), obatoclax (Ob), prodigiosin (P)”
as §4

[7] = tested on: TOV-112D (R175H); test: Cell viability assay (CellTiterGlo), TOV-112D; conditions: TOV-112D, 6.67 μM
Protocol: as §3
as §3, with “2 p53-dependent inhibition of” for “1 PG3 inhibits”, “is only observed at specific concentrations. (A–J)” for “and growth in a p53-indepent manner. (A–E)”, “ZMC1, CP-313908, APR-246, Ellipticine, Nutalin-3a” for “PG3, PG3-Oc (Oc), obatoclax (Ob), prodigiosin (P)”
as §4

[8] = tested on: p53 protein; test: Western blot, p53 protein levels
Protocol: Cells were treated for 24 h with indicated compounds, concentrations and cell lines. Abbreviations: S.E.: Short exposure; L.E.: Long exposure.
as §2

[9] = tested on: ATF4; test: Western blot, ATF4 induction; conditions: five cancer cell lines, 24 h
Protocol: as §1, §2

[10] = tested on: p21; test: Western blot, p21 induction; conditions: 24 h
Protocol: as §1, §2

[11] = tested on: cleaved caspase-8, -3, cleaved PARP and PUMA in HT29, SW480 and HCT116 p53−/− cells; test: Western blot, apoptosis markers in PG3-treated cells; conditions: co-treatment with PG3; HT29, SW480, HCT116 p53–/–
Protocol: Figure 5 PG3 induces apoptosis in p53-null and p53-mutant cancer cell lines. (A–E) Dose-response and time-course analysis of cleavage of caspase-8, -3, cleaved PARP and PUMA in PG3-treated HT29, SW480 and HCT116 p53^−/− cells by western blot using the indicated antibodies. (F–H) Flowcytometry analysis of cell death. (I) HT29 and HT29-PUMA^−/− and (J) SW480 cells were co-treated with PG3 and pan-caspase inhibitor Z-VAD-fmk for 48 h. (K) HCT116 p53^−/− cell were co-treated with PG3 and Z-VAD-fmk for 24 hours.
as §2

[12] = tested on: GCN2, PKR, eIF2α, ATF4, CHOP in HT29 cells; test: Western blot, ISR kinases / eIF2α / ATF4 / CHOP; conditions: pre-treatment 2 hours, then ONC201 or PG3 for 24 hour
Protocol: Figure 7 PG3 induces upregulation of ATF4 through ISR via HRI. (A) HT29 cells were treated with PG3, GSK2606414, TG and ONC201 respectively, or co-treatment with PG3/GSK2606414, PG3/TG, and PG3/ONC201 for 15 h. (B) MEF, MEF^PERK−/− and MEF^GCN2−/− cells were treated with PG3 and ONC201 for 16 hours. (C) HT29 cells were transfected with siControl, siPKR, siHRI and siPKR/siHRI for 24 hours and then treated with PG3 for 16 hours. (D) HCT116 p53^−/− cells were transfected with siControl and siHRI for 24 hours and then treated with PG3 for 16 hours. (E) HCT116 p53^−/− cells were treated with PG3 and ONC201 for indicated times. (F) PANC1-sgCtrl, -sgHRI and -sgPKR cell lines were treated with PG3 and imipridones (ONC201, ONC206 and ONC212) for 16 hours. Western blot was performed using indicated antibodies. (G) Proposed model of PG3-induced cell apoptosis through HRI/ATF4/PUMA axis. Abbreviation: L.E.: Long exposure.
as §2
Supplementary Figure 2: ROS and NO are not responsible for PG3-induced HRI activation. (A, B) cells were pre-treated
with ZnPP, L-NMMA, SA and NAC for 2 hours respectively, and then ONC201 or PG3 was added to the medium for 24 hour treatment.
Western blot was performed using indicated antibodies.
(1 picture or pasted object on this page, not shown here)

With `COCC1(CO)C(=O)C2CCN1CC2` (stereo not shown) [APR-246] the “upregulation of PUMA” value [1] was “upregulates PUMA”, the p53-responsive reporter activity [2] was “not able to activate the reporter” and the pIC50 ([3]; 72 h, CellTiterGlo) was 5.05. For the same molecule, the “fold more sensitive than the p53 wild-type HCT116 cell line” value ([3]; p53-mutated R175H HCT116 vs HCT116 WT, 'at a concentration of 20 μM') was 3.7 fold, the pIC50 [4] was 4.48 and the “inhibitory effects on normal cells” value ([5]; HFF-1 and MRC5, 0.08 μM) was “no detectable inhibitory effects”. The inhibition of proliferation ([5]; TOV-112D and HT29, 0.08 μM) was “potently inhibited”, the pIC50 ([6]; 72 h, CellTiterGlo) was 4.95 and the “fold more sensitive than the p53 wild-type HCT116 cell line” value ([6]; p53-null HCT116 vs HCT116 WT, 'at a concentration of 20 μM') was 2.9 fold. For the same molecule, the inhibition of proliferation [7] was “almost completely inhibited”, the “wild-type p53 protein level” value ([8]; HCT116, 24 h) was “no effect” and the “endogenous mutant p53 R273H protein level” value ([8]; HT29, 24 h) was “stabilizes”. For the same molecule, the “endogenous mutant p53 R175H protein level” value ([8]; TOV-112D, 24 h) was “stabilizes”, the “exogenous mutant p53 R175H protein level” value ([8]; engineered HCT116-R175H cells, 24 h) was “does not stabilize” and the “upregulation of ATF4” value [9] was “does not upregulate ATF4”. The “upregulation of p21” value ([10]; HCT116 (p53 wild-type)) was “slightly induces p21” and the “upregulation of p21” value ([10]; TOV-112D) was “slightly induces p21”.
For `COC(=O)C[C@H](NC(=O)[C@H](C)NC(=O)[C@@H](NC(=O)OCc1ccccc1)C(C)C)C(=O)CF` [Z-VAD-FMK] (Cbz-Val-Ala-Asp(OMe)-CH2F), the “effect on PG3-induced cleavage of PARP, caspase-8 and -3” value [11] was “potently inhibits the cleavage of PARP, caspase-8, and -3”.
For `C=CC1=C(C)c2cc3[n-]c(cc4nc(cc5[n-]c(cc1n2)c(C)c5C=C)C(C)=C4CCC(=O)O)c(CCC(=O)O)c3C.[Zn+2]` [ZnPP, Zinc protoporphyrin], the “effect on PG3- or ONC201-induced upregulation of ATF4” value [12] was “do not attenuate or block”.
